Patent publication US20240166658A1, “PORPHYRIN DERIVATIVES AND USES THEREOF” (University of Tasmania, priority 2021, published 2024)

Assays:
[1] = UV-Vis host-guest titration, association constant; type: binding; conditions: host (9) in dichloromethane; triplicate, TBA salt and acid; Bindfit
Protocol: (§1) Path length of the quartz cell was 1 cm. For UV-vis titrations, a stock solution of host was prepared (2.2×10^−3 M) in dichloromethane (DCM) and serially diluted to the required concentrations. Working solutions of tetrabutylammonium (TBA) anion salts or guest molecules were prepared in the same manner Host−guest titrations used solutions of guest prepared in the working concentration of host solution, according to the procedure of Thordarson, 2011.
(§2) UV-vis spectroscopic host−guest titrations were performed in accordance with the methodologies of Thordarson, 2011. Solutions of host in dichloromethane were prepared. Solutions of guest were then prepared in the host solution. Aliquots of guest in host solution were added to host solution and sequentially analysed until a known molar equivalent of guest was added. The amount of guest added per aliquot was ascertained by a preliminary screening experiment; strong association constants required smaller molar equivalents so more information could be collected. By way of example, host (9) responded to 0.1 molar equivalent of PFBA strongly, so an addition of 1 molar equivalent of PFBA would result in a loss of information. The inverse is true for weaker binding interactions. […]
(§3) A host solution of host (9) in dichloromethane was monitored using UV-Vis analysis as 0.5-10 equivalents of each PFAS was added. […]

[2] = UV-Vis host-guest titration, association constant; type: binding; conditions: host (9) in dichloromethane; triplicate, TBA salt and acid; Bindfit; remark: listed apart in the source
Protocol: as §1, §2, §3

[3] = UV-Vis host-guest titration, association constant; type: binding; conditions: host (9) in dichloromethane; triplicate, TBA salt and acid; Bindfit; remark: listed apart in the source
Protocol: as §1, §2, §3

[4] = UV-Vis host-guest titration, association constant; type: binding; conditions: host (9) in dichloromethane; triplicate, TBA salt and acid; Bindfit; remark: listed apart in the source
Protocol: as §1, §2, §3

[5] = UV-Vis host-guest titration, association constant; type: binding; conditions: host (9) in dichloromethane; triplicate, TBA salt and acid; Bindfit; remark: listed apart in the source
Protocol: as §1, §2, §3

[6] = Anion selectivity screening with TBA salts, UV-Vis; type: binding; conditions: dichloromethane
Protocol: The selectivity of the host (9) for anions was investigated visually and spectroscopically. The TBA salts of anions commonly found in significant concentrations in water samples were added in 10 molar equivalents to solutions of host to give preliminary indications of host−guest interactions prior to more extensive investigation. Although not an accurate proxy of real-world matrix concentrations, it was thought that the binding of any anions would indicate any affinity for other anions.

[7] = Non-fluorinated and neutral fluorinated guest molecules, UV-Vis; type: binding; conditions: 10 molar equivalents, dichloromethane; immediately and 24 hours later
Protocol: The binding interaction was probed by combining the host (9) with non-fluorinated and neutral fluorinated guest molecules. Solutions of host (9) in dichloromethane were combined with 10 molar equivalents of tetrafluorobenzene and nonanoic acid. Solutions were analysed using UV-Vis spectroscopy (immediately and 24 hours later) to check for any indication of binding.

[8] = GenX, water and HDPP tube experiment (biphasic)
Protocol: A solution of medium chain amide host (2.04×10^−5 M) in dichloromethane was added to an aqueous solution of GenX™ (5 ppm, 1.51×10^−5 M 50 mL) in a volumetric flask. […] Both phases were then transferred via pouring to a HDPP tube. The green colour persisted initially but began to reduce with time.

[9] = Colorimetric matching of mixed PFCA samples, high concentration
Excerpt: The present inventors investigated the colorimetric responses for host (12) with “high” concentrations of PFCA (where [host]<[guest]), and “low” concentrations of PFCA (where [host]>[guest]). Generally, RGB response values will increase with increasing concentrations of PFCA until the host has been saturated; beyond the saturation limit, RGB response values are similar. When there was an excess of guest, the response values could only be used as a threshold indication for PFCA concentrations.
RGB response curves were established by combining solutions of host (12) (5.01×10^−6 M) with solutions of PFOA (0-16 ppm, 3.86×10^−5 M) in dichloromethane. […] Thus, when establishing a calibration curve, the relative proportion of free host to host−PFCA complex limiting the variability of colour response must be considered for the application.
For the “high” PFCA concentration experiment, the PFOA generated calibration curve (y=0.0401 ln(x)+0.2366, R^2=0.9677) (FIG. 17) begins to level out at ca. 2 ppm. Above that concentration, the RGB response values are difficult to differentiate.

[10] = Colorimetric matching of mixed PFCA samples, low concentration
Protocol: In the “low” PFCA concentration experiment, the RGB response values had the greatest rate of change from 0-40 ppb PFOA and appeared to level out between 40-80 ppb PFOA. In that instance, the regression was fit for a host : guest ratio of 0-0.8. To probe the sensor's response to a mixture of PFCAs, samples containing combinations of PFHxA, PFHpA, and PFDA in dichloromethane (7-28 ppb) were prepared and the RGB responses were collected. The PFCA concentrations for the samples were predicted using the PFOA regression (y=0.0591 ln(x)+0.037, R^2=0.9771).
The lowest concentration PFCA sample (7 ppb) was predicted to be ca. 11 ppb (58% error) from the PFOA regression, whilst the higher concentration mixed PFCA samples (14.1 and 28.8 ppb) were predicted to be ca. 16 and 23 ppb (17 and 18% error respectively). Thus, host (12) may be coupled with a phone camera to estimate mixed PFCA concentrations from RGB data with <20% error, or used visually for threshold detection of total PFCA concentrations above 10 ppb.

Row | SMILES | K value (averaged association constant Ka) [1] | K value (averaged association constant Ka) [2] | K value (averaged association constant Ka) [3] | K value (averaged association constant Ka) [4] | K value (averaged association constant Ka) [5] | shift in the Q band ([6]; 10 molar equivalents of TBA salt) [nm] | UV-Vis change after addition of anion ([6]; 10 molar equivalents of TBA salts) | colorimetric response [7] | colour of host solution after transfer to HDPP tube ([8]; after 24 hours) | colour of host solution ([8]; host 2.04×10^−5 M in dichloromethane added to aqueous GenX 5 ppm) | ΔE ([9]; 15 vs 3 ppm PFCA sample) | ΔE ([9]; 15 vs 12 ppm PFCA sample) | [PFCA]predicted from PFOA regression ([9]; sample measured 0.20 ppm) [ppm] | average ΔE of mixed PFCA samples vs host solution ([10]; 7-28 ppb) | concentration predicted from PFOA regression ([10]; 7 ppb PFCA sample) | concentration predicted from PFOA regression ([10]; 14.1 ppb mixed PFCA sample) | concentration predicted from PFOA regression ([10]; 28.8 ppb mixed PFCA sample) [ppb] | ΔE (Host − PFCA) ([10]; PFCAs 7 ppb) | ΔE (Host − PFCA) ([10]; PFCAs 14 ppb) | ΔE (Host − PFCA) ([10]; PFCAs 28 ppb)
1 | O=C(Nc1ccccc1-c1c2nc(c(-c3ccccc3NC(=O)C(F)(F)C(F)(F)C(F)(F)C(F)(F)C(F)(F)C(F)(F)C(F)(F)F)c3ccc([nH]3)c(-c3ccccc3NC(=O)C(F)(F)C(F)(F)C(F)(F)C(F)(F)C(F)(F)C(F)(F)C(F)(F)F)c3nc(c(-c4ccccc4NC(=O)C(F)(F)C(F)(F)C(F)(F)C(F)(F)C(F)(F)C(F)(F)C(F)(F)F)c4ccc1[nH]4)C=C3)C=C2)C(F)(F)C(F)(F)C(F)(F)C(F)(F)C(F)(F)C(F)(F)C(F)(F)F [host (9), α,α,α,α-5,10,15,20-tetrakis(2-(pentadecafluorooctanoylamino)phenyl)porphyrin] | 12999 | 20459 | 392106 | 15272 | 6585 | ~32 | no significant change | no colorimetric response | significant reduction in the intensity of the green colour | immediately became a vibrant green colour |  |  |  |  |  |  |  |  |  | 
2 | O=C(Nc1ccccc1-c1c2nc(c(-c3ccccc3NC(=O)C(F)(F)C(F)(F)C(F)(F)C(F)(F)C(F)(F)C(F)(F)C(F)(F)C(F)(F)C(F)(F)C(F)(F)C(F)(F)F)c3ccc([nH]3)c(-c3ccccc3NC(=O)C(F)(F)C(F)(F)C(F)(F)C(F)(F)C(F)(F)C(F)(F)C(F)(F)C(F)(F)C(F)(F)C(F)(F)C(F)(F)F)c3nc(c(-c4ccccc4NC(=O)C(F)(F)C(F)(F)C(F)(F)C(F)(F)C(F)(F)C(F)(F)C(F)(F)C(F)(F)C(F)(F)C(F)(F)C(F)(F)F)c4ccc1[nH]4)C=C3)C=C2)C(F)(F)C(F)(F)C(F)(F)C(F)(F)C(F)(F)C(F)(F)C(F)(F)C(F)(F)C(F)(F)C(F)(F)C(F)(F)F [host (12), α,α,α,α-5,10,15,20-tetrakis(2-(tricosafluorododecanoylamino)phenyl) porphyrin] |  |  |  |  |  |  |  |  |  |  | 10 | 2 | 0.18 | > 10 | ca. 11 ppb | ca. 16 ppb | ~23 | 11 | 11 | 12
